Laboratory results from patent publication US8686022B2, “7-(piperazine-1-ymethyl)-1H-indole-2-carboxylic acid (phenyl)-amide derivatives and allied compounds as p38 MAP kinase inhibitors for the treatment of respiratory diseases” (Boehringer Ingelheim International GmbH, priority 2008, dated 2014).
Converted amounts (≈) assume the structure as drawn.

What was measured:
[1] = target: p38 MAP-kinase (Homo sapiens, UniProt Q16539); assay: p38 MAP-kinase enzymatic assay (phosphorylation of GST-tagged ATF2, chemoluminescence); format: biochemical; conditions: inhibitor concentration 1 μM; activated p38 MAP-kinase 1 nM; ATP 100 μM; read-out: p38 (% Inh @ 1 μM)
Summary of the method: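 Activated p38 MAP-kinase (1 nM) preincubated 4 h at ambient temperature with 1 μM compound in HEPES pH 7, MgCl2, DTT, TWEEN20, then reacted 1 h with 10 nM GST-ATF2 and 100 μM ATP. Phospho-ATF2 detected by AlphaScreen-type bead luminescence; percent inhibition at 1 μM versus uninhibited and kinase-free controls.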

[2] = target: cytochrome P450 2C9 (Homo sapiens, UniProt P11712); assay: Determining the cyp2C9 activity (O-demethylation of [O-methyl-14C]-naproxen); format: in vitro ADME; conditions: human recombinant cytochrome P450 2C9; 37° C.; <0.4 μM when inhibition >50% at lowest concentration; read-out: CYP 2C9 IC50
Summary of the method: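 Recombinant CYP2C9 (40 pmol/ml) with 80 μM [O-methyl-14C]-naproxen in 0.1 M Tris, 5 mM MgCl2; test compound at 50, 10, 2 and 0.4 μM in duplicate. Started with 1 mM NADPH, stopped after 15 min with TCA; 14C-formaldehyde separated by solid-phase extraction and counted by scintillation. IC50 from least-squares fit.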

[3] = Determining the solubility (saturated solution in McIlvaine buffer pH 7.4, UV spectroscopy); format: physicochemical; conditions: pH 7.4, aqueous buffer, thermodynamic from solid, shaken 2 hours, 0.75 mg solid in 0.75 ml
Summary of the method: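 Excess solid (0.75 mg per 0.75 ml) shaken 2 h in McIlvaine buffer pH 7.4, then filtered through 0.45 μm PTFE membrane with first drops discarded. Dissolved amount measured by UV spectroscopy.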

p38 MAP-kinase, sequence (Q16539 whole entry): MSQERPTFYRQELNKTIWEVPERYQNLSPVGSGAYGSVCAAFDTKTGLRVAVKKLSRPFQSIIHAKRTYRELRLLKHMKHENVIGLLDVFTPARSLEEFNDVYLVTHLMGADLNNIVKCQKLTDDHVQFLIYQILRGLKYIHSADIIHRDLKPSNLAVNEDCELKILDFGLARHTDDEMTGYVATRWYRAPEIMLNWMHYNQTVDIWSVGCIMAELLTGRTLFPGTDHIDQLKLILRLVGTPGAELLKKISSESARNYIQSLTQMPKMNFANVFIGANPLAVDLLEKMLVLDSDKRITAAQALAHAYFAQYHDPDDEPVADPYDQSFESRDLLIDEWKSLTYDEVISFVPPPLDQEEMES
cytochrome P450 2C9, sequence (P11712 whole entry): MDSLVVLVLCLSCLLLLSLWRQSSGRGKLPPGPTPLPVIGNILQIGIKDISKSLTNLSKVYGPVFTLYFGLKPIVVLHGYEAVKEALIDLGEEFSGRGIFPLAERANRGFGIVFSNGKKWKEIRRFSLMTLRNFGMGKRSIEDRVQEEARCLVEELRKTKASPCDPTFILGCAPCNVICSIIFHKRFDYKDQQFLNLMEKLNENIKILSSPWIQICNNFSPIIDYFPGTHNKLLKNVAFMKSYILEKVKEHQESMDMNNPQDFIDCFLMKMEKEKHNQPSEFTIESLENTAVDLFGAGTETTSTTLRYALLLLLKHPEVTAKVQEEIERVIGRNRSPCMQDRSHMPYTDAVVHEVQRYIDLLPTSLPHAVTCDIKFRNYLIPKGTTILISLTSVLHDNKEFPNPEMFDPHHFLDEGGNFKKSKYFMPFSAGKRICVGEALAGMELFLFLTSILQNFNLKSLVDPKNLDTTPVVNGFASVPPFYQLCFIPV

Structure (SMILES)	inhibition at 1 µM [1] [%]	IC50 [2] [nM]	solubility at 2 h [3] [µg/mL]
CCC(C)c1cc(NC(=O)c2cc3cccc(CN4CCN(C(=O)[C@@H]5CCCN5C)CC4)c3n2C)c(OC)c(NS(C)(=O)=O)c1 (stereo partly drawn) [11(1), 1-methyl-7-[4-((2S)-1-methyl-pyrrolidine-2-carbonyl)-piperazin-1-ylmethyl]-1H-indole-2-carboxylic acid-(5-sec-butyl-3-methanesulphonylamino-2-methoxy-phenyl)-amide]	13.2	2650	> 1000
COc1c(NC(=O)c2cc3cccc(CN4CCN(C(=O)[C@@H]5CCCN5C)CC4)c3n2C)cc(C(C)C)cc1NS(C)(=O)=O [11(2), (S)-1-methyl-7-[4-(1-methyl-pyrrolidine-2-carbonyl)-piperazin-1-ylmethyl]-1H-indole-2-carboxylic acid-(5-isopropyl-3-methanesulphonylamino-2-methoxy-phenyl)-amide]	18	10400	> 1000
COc1c(NC(=O)c2cc3cccc(CN4CCN(C(=O)[C@@H]5CCCN5C)CC4)c3n2C)cc(C(C)(C)C)cc1S(C)(=O)=O [11(4), (S)-1-methyl-7-[4-(1-methyl-pyrrolidine-2-carbonyl)-piperazin-1-ylmethyl]-1H-indole-2-carboxylic acid-(5-tert-butyl-3-methanesulphonyl-2-methoxy-phenyl)-amide]	99.5	460	43 (≈ 68.9 µM)
COc1c(CS(C)(=O)=O)cc(C(C)(C)C)cc1NC(=O)c1cc2cccc(CN3CCN(C(=O)[C@@H]4CCCN4C)CC3)c2n1C [11(5), (S)-1-methyl-7-[4-(1-methyl-pyrrolidine-2-carbonyl)-piperazin-1-ylmethyl]-1H-indole-2-carboxylic acid-(5-tert-butyl-3-methanesulphonylmethyl-2-methoxy-phenyl)-amide]	99.6	2340	53 (≈ 83.1 µM)
COc1c(C[S+](C)[O-])cc(C(C)(C)C)cc1NC(=O)c1cc2cccc(CN3CCN(C(=O)[C@@H]4CCCN4C)CC3)c2n1C (stereo partly drawn) [11(6), 1-methyl-7-[4-((2S)-1-methyl-pyrrolidine-2-carbonyl)-piperazin-1-ylmethyl]-1H-indole-2-carboxylic acid-(5-tert-butyl-3-methanesulphinylmethyl-2-methoxy-phenyl)-amide]	99.6	3180	680 (≈ 1090 µM)
CCOc1c(NC(=O)c2cc3cccc(CN4CCN(C(=O)[C@@H]5CCCN5C)CC4)c3n2C)cc(C(C)(C)C)cc1NS(C)(=O)=O [11(7), (S)-1-methyl-7-[4-(1-methyl-pyrrolidine-2-carbonyl)-piperazin-1-ylmethyl]-1H-indole-2-carboxylic acid-(5-tert-butyl-3-methanesulphonylamino-2-ethoxy-phenyl)-amide]	99.3	410	110 (≈ 168 µM)
CCCC(=O)Nc1cc(C(C)(C)C)cc(NC(=O)c2cc3cccc(CN4CCN(C(=O)[C@@H]5CCCN5C)CC4)c3n2C)c1OC [12(1), (S)-1-methyl-7-[4-(1-methyl-pyrrolidine-2-carbonyl)-piperazin-1-ylmethyl]-1H-indole-2-carboxylic acid-(5-tert-butyl-3-butyrylamino-2-methoxy-phenyl)-amide]	87.7	960	44 (≈ 69.7 µM)
COc1c(NC(C)=O)cc(C(C)(C)C)cc1NC(=O)c1cc2cccc(CN3CCN(C(=O)[C@@H]4CCCN4C)CC3)c2n1C [12(2), (S)-1-methyl-7-[4-(1-methyl-pyrrolidine-2-carbonyl)-piperazin-1-ylmethyl]-1H-indole-2-carboxylic acid-(3-acetylamino-5-tert-butyl-2-methoxy-phenyl)-amide]	98.2	3460	630 (≈ 1050 µM)
COc1c(NC(=O)c2cc3cccc(CN4CCN(C(=O)[C@@H]5CCCN5C)CC4)c3n2C)cc(C(C)(C)C)cc1NC(=O)C(C)C [12(3), (S)-1-methyl-7-[4-(1-methyl-pyrrolidine-2-carbonyl)-piperazin-1-ylmethyl]-1H-indole-2-carboxylic acid-(5-tert-butyl-3-isobutyrylamino-2-methoxy-phenyl)-amide]	97.3	2150	91 (≈ 144 µM)
COc1c(NC(=O)c2cc3cccc(CN4CCN(C(=O)[C@@H]5CCCN5C)CC4)c3n2C)cc(C(C)(C)C)cc1NC(=O)C1CC1 [12(4), (S)-1-methyl-7-[4-(1-methyl-pyrrolidine-2-carbonyl)-piperazin-1-ylmethyl]-1H-indole-2-carboxylic acid-[5-tert-butyl-3-(cyclopropanecarbonyl-amino)-2-methoxy-phenyl]-amide]	96.4	650	59 (≈ 93.8 µM)
COc1c(NC(=O)c2cc3cccc(CN4CCN(C(=O)[C@@H]5CCCN5C)CC4)c3n2C)cc(C(C)(C)C)cc1NS(=O)(=O)C1CC1 [13(1), (S)-1-methyl-7-[4-(1-methyl-pyrrolidine-2-carbonyl)-piperazin-1-ylmethyl]-1H-indole-2-carboxylic acid-(5-tert-butyl-3-cyclopropanesulphonylamino-2-methoxy-phenyl)-amide]	99.3	670	12 (≈ 18 µM)
COc1c(NC(=O)c2cc3cccc(CN4CCN(C(=O)[C@@H]5CCCN5C)CC4)c3n2C)cc(C(F)(F)F)cc1NS(C)(=O)=O [14(1), (S)-1-methyl-7-[4-(1-methyl-pyrrolidine-2-carbonyl)-piperazin-1-ylmethyl]-1H-indole-2-carboxylic acid-(3-methanesulphonylamino-2-methoxy-5-trifluoromethyl-phenyl)-amide]	97.9	5270	97 (≈ 149 µM)
COc1c(NC(=O)c2cc3cccc(CN4CCN(C(=O)C5CCN(C)CC5)CC4)c3n2C)cc(C(C)(C)C)cc1NS(C)(=O)=O [Example 1, 1-methyl-7-[4-(1-methyl-piperidine-4-carbonyl)-piperazin-1-ylmethyl]-1H-indole-2-carboxylic acid(5-tert-butyl-3-methanesulphonylamino-2-methoxy-phenyl)-amide]	98.9	2420	360 (≈ 551 µM)
COc1c(NC(=O)c2cc3cccc(CN4CCN(C(=O)N5CC[C@@H](N(C)C)C5)CC4)c3n2C)cc(C(C)(C)C)cc1NS(C)(=O)=O [Example 2, (R)-7-[4-(3-dimethylamino-pyrrolidine-1-carbonyl)-piperazin-1-ylmethyl]-1-methyl-1H-indole-2-carboxylic acid(5-tert-butyl-3-methanesulohonylamino-2-methoxy-phenyl)-amide]	99.1	1290	10 (≈ 15 µM)
COc1c(NC(=O)c2cc3cccc(CN4CCN(C(=O)C5CNC5)CC4)c3n2C)cc(C(C)(C)C)cc1NS(C)(=O)=O [Example 3, 7-[4-(azetidine-3-carbonyl)-piperazin-1-ylmethyl]-1-methyl-1H-indole-2-carboxylic acid (5-tert-butyl-3-methanesulphonylamino-2-methoxy-phenyl)-amide]	99	1260	85 (≈ 139 µM)
COc1c(NC(=O)c2cc3cccc(CN4CCN(C(=O)C5CCCN(C)C5)CC4)c3n2C)cc(C(C)(C)C)cc1NS(C)(=O)=O (stereo not drawn) [Example 4, 1-methyl-7-[4-(1-methyl-piperidine-3-carbonyl)-piperazin-1-ylmethyl]-1H-indole-2-carboxylic acid (5-tert-butyl-3-methanesulphonylamino-2-methoxy-phenyl)-amide]	99.4	440	78 (≈ 119 µM)
COc1c(NC(=O)c2cc3cccc(CN4CCN(C(=O)[C@H]5CCN(C)C5)CC4)c3n2C)cc(C(C)(C)C)cc1NS(C)(=O)=O [Example 5, (S)-1-methyl-7-[4-(1-methyl-pyrrolidine-3-carbonyl)-piperazin-1-ylmethyl]-1H-indole-2-carboxylic acid (5-tert-butyl-3-methanesulphonylamino-2-methoxy-phenyl)-amide]	98.6	1150	620 (≈ 971 µM)
COc1c(NC(=O)c2cc3cccc(CN4CCN(C(=O)CN5CCC(N(C)C)CC5)CC4)c3n2C)cc(C(C)(C)C)cc1NS(C)(=O)=O [Example 6, 7-{4-[2-(4-dimethylamino-piperidin-1-yl)-acetyl]-piperazin-1-ylmethyl}-1-methyl-1H-indole-2-carboxylic acid-(5-tert-butyl-3-methanesulphonylamino-2-methoxy-phenyl)-amide]	98.6	3430	> 1000
COc1c(NC(=O)c2cc3cccc(CN4CCN(C(=O)CN5CCNCC5)CC4)c3n2C)cc(C(C)(C)C)cc1NS(C)(=O)=O [Example 7, 1-methyl-7-[4-(2-piperazin-1-yl-acetyl)-piperazin-1-ylmethyl]-1H-indole-2-carboxylic acid-(5-tert-butyl-3-methanesulphonylamino-2-methoxy-phenyl)-amide]	98.7	5320	110 (≈ 168 µM)
